The values that follow come from PMC9283466, “In silico identification of two peptides with antibacterial activity against multidrug-resistant Staphylococcus aureus” (NPJ Biofilms and Microbiomes, 2022).

In brackets after ≈: the same amount, converted by molar mass. Bridge positions count the residues as written; N and C are the ends. Peptide text beside a SMILES is read from it.

Assay [1] can be described thus: Peptide-lipid interaction and insertion, lipid monolayer. As to conditions: MRSA extract; initial surface pressure 30+/-0.5 mN/m. The assay is classed as binding, Staphylococcus aureus. As to the method: Peptide–lipid interaction was measured using a lipid monolayer formed at the air:water interface with total lipid extracts and pure lipids. Total lipids were extracted from overnight cultures of MRSA or human erythrocytes using the Folch extraction procedure[14],[40]. Extracted total lipids were dried, re-solubilised in chloroform:methanol (2:1, v/v) and stored at −20 °C under nitrogen. […] The variation of the surface pressure caused by peptide insertion was then continuously monitored using a fully automated microtensiometer (µTROUGH SX, Kibron Inc, Finland) until it reached equilibrium (maximal surface pressure increase is usually obtained after 15–25 min). […] In other experiments, the critical pressure of insertion of HG2 or HG4 in the total lipid extracts and pure lipids was measured as follows[14],[56]. Briefly, in these experiments, the initial pressure of the lipid monolayer was set up at different values (between 10 and 30 mN/m) and the variation of pressure caused by the injection of the peptide was measured. […] All experiments were carried out in a controlled atmosphere at 20 ± 1 °C and data were analyzed using the Firmware 2.5 programme (Kibron Inc.). The accuracy of the system under our experimental conditions was determined to be ±0.25 mN/m for surface pressure measurements.

For another assay, the system named is A. baumannii 515785. The assay is described as follows: microbe, parasite or virus in culture. Format: cell-based, Acinetobacter baumannii. As to conditions: 515785. The method, then: (§1) To determine the antimicrobial activity of the new antimicrobial peptides, HG2 and HG4, their minimum inhibitory concentrations (MICs) were determined by broth microdilution method[51] in cation adjusted Mueller Hinton broth (MHB) following the International Organisation for Standardisation (ISO) 20776-1 standard for MIC testing using a final bacterial inoculum of 5 × 10^5 CFU/ml[52]. […] The peptides dissolved in sterile distilled water were added to bacteria culture and incubated overnight at appropriate conditions. The MICs of the peptides and comparator antibiotics were recorded after 18–24 h. The minimum bactericidal concentrations (MBCs) were also determined and were taken as the lowest concentration of the antimicrobial that prevented the growth of bacterial cells after the subculture of cells (from MIC treatment) onto antibiotic-free media.

Assay [2] has as its system A. baumannii (IMI, MER resistant; strain ID not given). The assay can be described thus: microbe, parasite or virus in culture. The assay is classed as cell-based, Acinetobacter baumannii. As to conditions: MER resistant, no strain ID printed. The method, then:
as §1

A further assay has as its system A. baumannii 515722. The assay is described as follows: microbe, parasite or virus in culture. The assay is classed as cell-based, Acinetobacter baumannii. As to conditions: 515722. The method, then:
as §1

The next assay deals with A. baumannii 515908. The assay can be described thus: microbe, parasite or virus in culture. The assay is classed as cell-based, Acinetobacter baumannii. To be noted: 515908. As to the method: as §1
The subject of assay [3] is MRSA USA300 infection in G. mellonella. The assay can be described thus: In vivo efficacy, G. mellonella MRSA USA300 infection model. On the set-up: species or system Galleria mellonella. As to conditions: MRSA USA300 LD; for survival rate higher than the control group: peptides at 1x MIC; for increase in survival versus untreated control group / survival rate: peptides at 3x MIC. The method, then:
All procedures of larvae rearing, injection and G. mellonella killing assays were conducted using validated methods. In each assay, ten larvae weighing between 280–300 mg each were randomly selected. Larvae with the previous melanisation of the cuticle were excluded from the experiments. All experiments were designed in at least four experimental and biological replicates.
To determine the LD50 and LD of S. aureus MRSA USA300 in G. mellonella, an inoculum of 10 µl of MRSA USA300 suspension in PBS 1X (10^3 to 10^6 CFU/larvae) was injected into the larvae haemocoel using insulin syringes (Becton Dickinson, USA). Larvae inoculated with PBS and larvae not inoculated were used as negative controls.
The efficacy of the peptides HG2 and HG4 to control MRSA USA300 infection in vivo, was evaluated following the protocol by ref. [43]. The groups of G. mellonella larvae were infected with the predetermined lethal dose of MRSA USA300. After 30 min of the larvae injection with the bacteria, the peptides were injected at 1x MIC and 3x MIC concentrations respectively. Larvae injected with PBS solution, and HG2 or HG4 peptide solution (1x MIC or 3x MIC) alone were used as negative controls. Injected larvae were maintained at 37 °C in the dark and their survival was monitored and analyzed as above.

The molecule `CC[C@H](C)[C@H](NC(=O)[C@H](CC(C)C)NC(=O)[C@H](CC(C)C)NC(=O)[C@H](C)NC(=O)CNC(=O)CNC(=O)[C@@H](NC(=O)[C@@H](NC(=O)[C@H](CC(C)C)NC(=O)[C@H](C)NC(=O)[C@H](CC(C)C)NC(=O)CNC(=O)[C@H](CC(C)C)NC(=O)[C@@H](N)C(C)C)[C@@H](C)CC)C(C)C)C(=O)N[C@@H](CCCCN)C(=O)N[C@@H](CCCCN)C(=O)N[C@@H](CCCCN)C(=O)N[C@@H](CCC(N)=O)C(=O)N[C@@H](C)C(=O)N[C@@H](CCCCN)C(=O)N[C@@H](CO)C(N)=O` [HG4] (H-VLGLALIVGGALLIKKKQAKS-NH2; N-terminus and C-terminus assumed) had a Speed of insertion in assay [1] of 1.69 mN/m/10 sec. The MIC with A. baumannii 515785 was 128 mg/L (≈ 60.4 µM); in assay [2], 64 mg/L (≈ 30.2 µM); against A. baumannii 515722 it was 32 mg/L (≈ 15.1 µM); against A. baumannii 515908 it was 64 mg/L (≈ 30.2 µM). The “survival rate higher than the control group” value in assay [3] is reported as ~ 20%. In assay [3], the “increase in survival versus untreated control group” value turned out to be 4.4 fold. The same molecule returned a survival rate in assay [3] of 75%.

For `CC[C@H](C)[C@H](NC(=O)[C@H](CC(C)C)NC(=O)[C@H](CC(C)C)NC(=O)[C@H](CC(C)C)NC(=O)[C@H](CCCCN)NC(=O)[C@H](CCCCN)NC(=O)[C@@H](N)CCSC)C(=O)N[C@@H](CC(C)C)C(=O)N[C@@H](Cc1ccccc1)C(=O)N[C@H]1CSSC[C@@H](C(=O)N[C@@H](CCCCN)C(=O)N[C@@H](CCCCN)C(=O)N[C@@H](C)C(=O)N2CCC[C@H]2C(N)=O)NC(=O)CNC(=O)[C@H](C)NC(=O)[C@H](CC(C)C)NC(=O)[C@H](C)NC(=O)[C@H](CC(C)C)NC(=O)[C@H](C)NC(=O)[C@H](CC(C)C)NC1=O` [HG2] (H-MKKLLLILFCLALALAGCKKAP-NH2; disulfide 10-18; N-terminus assumed), the Speed of insertion in assay [1] stood at 3.36 mN/m/10 sec. The MIC against A. baumannii 515785 came to 256 mg/L (≈ 109 µM); in assay [2] it was 128 mg/L (≈ 54.3 µM); against A. baumannii 515722, 16 mg/L (≈ 6.79 µM); against A. baumannii 515908, 32 mg/L (≈ 13.6 µM). Also, in assay [3], the “survival rate higher than the control group” value is ~ 20%. For the same molecule, the “increase in survival versus untreated control group” value in assay [3] is on record as 4.6 fold. For the same molecule, in assay [3], the survival rate was determined as 78%.
